Bridge positions count the residues as written; N and C are the ends. Square brackets hold non-standard residues; d marks the D form. Peptide text beside a SMILES is read from it. * marks the point of attachment. Bip = N[C@@H](Cc1ccc(-c2ccccc2)cc1)C(=O)O; Phe(3-Me) = Cc1cccc(C[C@H](N)C(=O)O)c1; 4Pal = N[C@@H](Cc1ccncc1)C(=O)O; Cha = N[C@@H](CC1CCCCC1)C(=O)O; Carboxymethyl = O=C(O)C*; NMeA = CN[C@@H](C)C(=O)O; Orn = NCCC[C@H](N)C(=O)O; Dab = NCC[C@H](N)C(=O)O
target: T1, PE-labeled human PD-L1-Ig binding to Jurkat cell line over-expressing human PD-1 (Jurkat-PD-1) (Homo sapiens, UniProt Q15116); experiment: Jurkat-PD-1 Cell Binding High-Content Screening Assay (CBA): Method 1; conditions: Jurkat-hPD-1 cells, PE-labeled PD-L1-Ig 20 nM final; read-out: Jurkat HPDL1 PD1 IC50 (uM) (Method 1)
T1 construct: expressed in transfected cells; host or cells: Jurkat
T1 sequence (Q15116 25-288): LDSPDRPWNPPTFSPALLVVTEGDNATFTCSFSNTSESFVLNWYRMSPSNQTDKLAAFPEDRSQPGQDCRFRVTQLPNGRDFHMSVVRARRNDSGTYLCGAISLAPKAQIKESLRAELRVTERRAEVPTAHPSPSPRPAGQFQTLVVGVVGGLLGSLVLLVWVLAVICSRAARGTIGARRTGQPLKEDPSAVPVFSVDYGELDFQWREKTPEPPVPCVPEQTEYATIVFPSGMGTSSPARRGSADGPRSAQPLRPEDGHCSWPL

SMILES	IC50
Cc1cccc(C[C@@H]2NC(=O)[C@H](CC(=O)O)NC(=O)[C@H](Cc3ccc(OCC(=O)O)cc3)NC(=O)[C@H](CC(N)=O)NC(=O)CSC[C@@H](C(N)=O)NC(=O)[C@H](CC(N)=O)NC(=O)[C@H](C(C)C)NC(=O)[C@H](CC3CCCCC3)NC(=O)[C@H](CCN)NC(=O)[C@@H](CC(C)C)NC(=O)[C@H](C)N(C)C(=O)[C@H](Cc3ccc(OCC(=O)O)cc3)NC(=O)[C@H](Cc3ccc(-c4ccccc4)cc3)NC(=O)[C@H](Cc3ccc(OCC(=O)O)cc3)NC2=O)c1 [Compound 1664] ({CH2CO}-NY(Carboxymethyl)D[Phe(3-Me)]Y(Carboxymethyl)[Bip]Y(Carboxymethyl)[NMeA][dL][Dab][Cha]VNC-NH2; thioether N-14)	0.05 µM
Cc1cccc(C[C@@H]2NC(=O)[C@H](CC(=O)O)NC(=O)[C@H](Cc3ccc(OCC(=O)O)cc3)NC(=O)[C@H](CC(N)=O)NC(=O)CSC[C@@H](C(N)=O)NC(=O)[C@H](CCC(N)=O)NC(=O)[C@H](C(C)C)NC(=O)[C@H](CC3CCCCC3)NC(=O)[C@H](CCN)NC(=O)[C@@H](CC(C)C)NC(=O)[C@H](C)N(C)C(=O)[C@H](Cc3ccc(OCC(=O)O)cc3)NC(=O)[C@H](Cc3ccc(-c4ccccc4)cc3)NC(=O)[C@H](Cc3ccc(OCC(=O)O)cc3)NC2=O)c1 [Compound 1665] ({CH2CO}-NY(Carboxymethyl)D[Phe(3-Me)]Y(Carboxymethyl)[Bip]Y(Carboxymethyl)[NMeA][dL][Dab][Cha]VQC-NH2; thioether N-14)	0.09 µM
Cc1cccc(C[C@@H]2NC(=O)[C@H](CC(=O)O)NC(=O)[C@H](Cc3ccc(OCC(=O)O)cc3)NC(=O)[C@H](CC(N)=O)NC(=O)CSC[C@@H](C(N)=O)NC(=O)[C@H]([C@@H](C)O)NC(=O)[C@H](C(C)C)NC(=O)[C@H](CC3CCCCC3)NC(=O)[C@H](CCN)NC(=O)[C@@H](CC(C)C)NC(=O)[C@H](C)N(C)C(=O)[C@H](Cc3ccc(OCC(=O)O)cc3)NC(=O)[C@H](Cc3ccc(-c4ccccc4)cc3)NC(=O)[C@H](Cc3ccc(OCC(=O)O)cc3)NC2=O)c1 [Compound 1666] ({CH2CO}-NY(Carboxymethyl)D[Phe(3-Me)]Y(Carboxymethyl)[Bip]Y(Carboxymethyl)[NMeA][dL][Dab][Cha]VTC-NH2; thioether N-14)	0.09 µM
Cc1cccc(C[C@@H]2NC(=O)[C@H](CC(=O)O)NC(=O)[C@H](Cc3ccc(OCC(=O)O)cc3)NC(=O)[C@H](CC(N)=O)NC(=O)CSC[C@@H](C(N)=O)NC(=O)[C@H](CCC(=O)O)NC(=O)[C@H](C(C)C)NC(=O)[C@H](CC3CCCCC3)NC(=O)[C@H](CCN)NC(=O)[C@@H](CC(C)C)NC(=O)[C@H](C)N(C)C(=O)[C@H](Cc3ccc(OCC(=O)O)cc3)NC(=O)[C@H](Cc3ccc(-c4ccccc4)cc3)NC(=O)[C@H](Cc3ccc(OCC(=O)O)cc3)NC2=O)c1 [Compound 1667] ({CH2CO}-NY(Carboxymethyl)D[Phe(3-Me)]Y(Carboxymethyl)[Bip]Y(Carboxymethyl)[NMeA][dL][Dab][Cha]VEC-NH2; thioether N-14)	0.11 µM
Cc1cccc(C[C@@H]2NC(=O)[C@H](CC(=O)O)NC(=O)[C@H](Cc3ccc(OCC(=O)O)cc3)NC(=O)[C@H](CC(N)=O)NC(=O)CSC[C@@H](C(N)=O)NC(=O)[C@H](CCCN)NC(=O)[C@H](C(C)C)NC(=O)[C@H](CC3CCCCC3)NC(=O)[C@H](CCN)NC(=O)[C@@H](CC(C)C)NC(=O)[C@H](C)N(C)C(=O)[C@H](Cc3ccc(OCC(=O)O)cc3)NC(=O)[C@H](Cc3ccc(-c4ccccc4)cc3)NC(=O)[C@H](Cc3ccc(OCC(=O)O)cc3)NC2=O)c1 [Compound 1668] ({CH2CO}-NY(Carboxymethyl)D[Phe(3-Me)]Y(Carboxymethyl)[Bip]Y(Carboxymethyl)[NMeA][dL][Dab][Cha]V[Orn]C-NH2; thioether N-14)	0.05 µM
Cc1cccc(C[C@@H]2NC(=O)[C@H](CC(=O)O)NC(=O)[C@H](Cc3ccc(OCC(=O)O)cc3)NC(=O)[C@H]([C@@H](C)O)NC(=O)CSC[C@@H](C(N)=O)NC(=O)[C@H](CC(N)=O)NC(=O)[C@H](C(C)C)NC(=O)[C@H](CC3CCCCC3)NC(=O)[C@H](CCN)NC(=O)[C@@H](CC(C)C)NC(=O)[C@H](C)N(C)C(=O)[C@H](Cc3ccc(OCC(=O)O)cc3)NC(=O)[C@H](Cc3ccc(-c4ccccc4)cc3)NC(=O)[C@H](Cc3ccc(OCC(=O)O)cc3)NC2=O)c1 [Compound 1669] ({CH2CO}-TY(Carboxymethyl)D[Phe(3-Me)]Y(Carboxymethyl)[Bip]Y(Carboxymethyl)[NMeA][dL][Dab][Cha]VNC-NH2; thioether N-14)	0.06 µM
Cc1cccc(C[C@@H]2NC(=O)[C@H](CC(=O)O)NC(=O)[C@H](Cc3ccc(OCC(=O)O)cc3)NC(=O)[C@H]([C@@H](C)O)NC(=O)CSC[C@@H](C(N)=O)NC(=O)[C@H](CC(=O)O)NC(=O)[C@H](C(C)C)NC(=O)[C@H](CC3CCCCC3)NC(=O)[C@H](CCN)NC(=O)[C@@H](CC(C)C)NC(=O)[C@H](C)N(C)C(=O)[C@H](Cc3ccc(OCC(=O)O)cc3)NC(=O)[C@H](Cc3ccc(-c4ccccc4)cc3)NC(=O)[C@H](Cc3ccc(OCC(=O)O)cc3)NC2=O)c1 [Compound 1670] ({CH2CO}-TY(Carboxymethyl)D[Phe(3-Me)]Y(Carboxymethyl)[Bip]Y(Carboxymethyl)[NMeA][dL][Dab][Cha]VDC-NH2; thioether N-14)	0.08 µM
Cc1cccc(C[C@@H]2NC(=O)[C@H](CC(=O)O)NC(=O)[C@H](Cc3ccc(OCC(=O)O)cc3)NC(=O)[C@H]([C@@H](C)O)NC(=O)CSC[C@@H](C(N)=O)NC(=O)[C@H](CCC(N)=O)NC(=O)[C@H](C(C)C)NC(=O)[C@H](CC3CCCCC3)NC(=O)[C@H](CCN)NC(=O)[C@@H](CC(C)C)NC(=O)[C@H](C)N(C)C(=O)[C@H](Cc3ccc(OCC(=O)O)cc3)NC(=O)[C@H](Cc3ccc(-c4ccccc4)cc3)NC(=O)[C@H](Cc3ccc(OCC(=O)O)cc3)NC2=O)c1 [Compound 1671] ({CH2CO}-TY(Carboxymethyl)D[Phe(3-Me)]Y(Carboxymethyl)[Bip]Y(Carboxymethyl)[NMeA][dL][Dab][Cha]VQC-NH2; thioether N-14)	0.09 µM

The remaining lines, values ahead:

IC50	SMILES
0.03 µM	Cc1cccc(C[C@@H]2NC(=O)[C@H](CC(=O)O)NC(=O)[C@H](Cc3ccc(OCC(=O)O)cc3)NC(=O)[C@H](Cc3ccncc3)NC(=O)CSC[C@@H](C(N)=O)NC(=O)[C@H](CCC(N)=O)NC(=O)[C@H](C(C)C)NC(=O)[C@H](CC3CCCCC3)NC(=O)[C@H](CCN)NC(=O)[C@@H](CC(C)C)NC(=O)[C@H](C)N(C)C(=O)[C@H](Cc3ccc(OCC(=O)O)cc3)NC(=O)[C@H](Cc3ccc(-c4ccccc4)cc3)NC(=O)[C@H](Cc3ccc(OCC(=O)O)cc3)NC2=O)c1 [Compound 1659] ({CH2CO}-[4Pal]Y(Carboxymethyl)D[Phe(3-Me)]Y(Carboxymethyl)[Bip]Y(Carboxymethyl)[NMeA][dL][Dab][Cha]VQC-NH2; thioether N-14)
0.02 µM	Cc1cccc(C[C@@H]2NC(=O)[C@H](CC(=O)O)NC(=O)[C@H](Cc3ccc(OCC(=O)O)cc3)NC(=O)[C@H](Cc3ccncc3)NC(=O)CSC[C@@H](C(N)=O)NC(=O)[C@H]([C@@H](C)O)NC(=O)[C@H](C(C)C)NC(=O)[C@H](CC3CCCCC3)NC(=O)[C@H](CCN)NC(=O)[C@@H](CC(C)C)NC(=O)[C@H](C)N(C)C(=O)[C@H](Cc3ccc(OCC(=O)O)cc3)NC(=O)[C@H](Cc3ccc(-c4ccccc4)cc3)NC(=O)[C@H](Cc3ccc(OCC(=O)O)cc3)NC2=O)c1 [Compound 1660] ({CH2CO}-[4Pal]Y(Carboxymethyl)D[Phe(3-Me)]Y(Carboxymethyl)[Bip]Y(Carboxymethyl)[NMeA][dL][Dab][Cha]VTC-NH2; thioether N-14)
0.05 µM	Cc1cccc(C[C@@H]2NC(=O)[C@H](CC(=O)O)NC(=O)[C@H](Cc3ccc(OCC(=O)O)cc3)NC(=O)[C@H](Cc3ccncc3)NC(=O)CSC[C@@H](C(N)=O)NC(=O)[C@H](CCC(=O)O)NC(=O)[C@H](C(C)C)NC(=O)[C@H](CC3CCCCC3)NC(=O)[C@H](CCN)NC(=O)[C@@H](CC(C)C)NC(=O)[C@H](C)N(C)C(=O)[C@H](Cc3ccc(OCC(=O)O)cc3)NC(=O)[C@H](Cc3ccc(-c4ccccc4)cc3)NC(=O)[C@H](Cc3ccc(OCC(=O)O)cc3)NC2=O)c1 [Compound 1661] ({CH2CO}-[4Pal]Y(Carboxymethyl)D[Phe(3-Me)]Y(Carboxymethyl)[Bip]Y(Carboxymethyl)[NMeA][dL][Dab][Cha]VEC-NH2; thioether N-14)
0.01 µM	Cc1cccc(C[C@@H]2NC(=O)[C@H](CC(=O)O)NC(=O)[C@H](Cc3ccc(OCC(=O)O)cc3)NC(=O)[C@H](Cc3ccncc3)NC(=O)CSC[C@@H](C(N)=O)NC(=O)[C@H](CCCN)NC(=O)[C@H](C(C)C)NC(=O)[C@H](CC3CCCCC3)NC(=O)[C@H](CCN)NC(=O)[C@@H](CC(C)C)NC(=O)[C@H](C)N(C)C(=O)[C@H](Cc3ccc(OCC(=O)O)cc3)NC(=O)[C@H](Cc3ccc(-c4ccccc4)cc3)NC(=O)[C@H](Cc3ccc(OCC(=O)O)cc3)NC2=O)c1 [Compound 1662] ({CH2CO}-[4Pal]Y(Carboxymethyl)D[Phe(3-Me)]Y(Carboxymethyl)[Bip]Y(Carboxymethyl)[NMeA][dL][Dab][Cha]V[Orn]C-NH2; thioether N-14)
0.01 µM	Cc1cccc(C[C@@H]2NC(=O)[C@H](CC(=O)O)NC(=O)[C@H](Cc3ccc(OCC(=O)O)cc3)NC(=O)[C@H](Cc3ccncc3)NC(=O)CSC[C@@H](C(N)=O)NC(=O)[C@H](CC(N)=O)NC(=O)[C@H](C(C)C)NC(=O)[C@H](CC3CCCCC3)NC(=O)[C@H](CCN)NC(=O)[C@@H](CC(C)C)NC(=O)[C@H](C)N(C)C(=O)[C@H](Cc3ccc(OCC(=O)O)cc3)NC(=O)[C@H](Cc3ccc(-c4ccccc4)cc3)NC(=O)[C@H](Cc3ccc(OCC(=O)O)cc3)NC2=O)c1 [Compound 1663] ({CH2CO}-[4Pal]Y(Carboxymethyl)D[Phe(3-Me)]Y(Carboxymethyl)[Bip]Y(Carboxymethyl)[NMeA][dL][Dab][Cha]VNC-NH2; thioether N-14)
